“Also recorded” adds a separate entry of the source. Like-named read-outs stand apart in the source and are kept apart here.
Key:
[1] = molecular target: FTase; conditions: published; cited from earlier work
[2] = molecular target: T1, rat brain FTase (Rattus norvegicus, UniProt Q02293); assay: Inhibition of rat brain FTase purified to homogeneity; format: biochemical
T1 construct: 50 nM towards rat brain FTase purified to homogeneity; from tissue; host or cells: rat brain

[3] = molecular target: T2, GGTase I (Homo sapiens, UniProt P53609); assay: GGTase I activity assay: transfer of [3H]geranylgeranyl to recombinant H-Ras-CVLL, Daudi 60,000xg supernatant; format: biochemical
T2 construct: FTase and GGTase I activities from 60,000×g supernatants of human Burkitt lymphoma (Daudi) cells; endogenous in cells; host or cells: human Burkitt lymphoma (Daudi) cells, 60,000xg supernatant (partially purified)
T2 sequence (P53609 whole entry): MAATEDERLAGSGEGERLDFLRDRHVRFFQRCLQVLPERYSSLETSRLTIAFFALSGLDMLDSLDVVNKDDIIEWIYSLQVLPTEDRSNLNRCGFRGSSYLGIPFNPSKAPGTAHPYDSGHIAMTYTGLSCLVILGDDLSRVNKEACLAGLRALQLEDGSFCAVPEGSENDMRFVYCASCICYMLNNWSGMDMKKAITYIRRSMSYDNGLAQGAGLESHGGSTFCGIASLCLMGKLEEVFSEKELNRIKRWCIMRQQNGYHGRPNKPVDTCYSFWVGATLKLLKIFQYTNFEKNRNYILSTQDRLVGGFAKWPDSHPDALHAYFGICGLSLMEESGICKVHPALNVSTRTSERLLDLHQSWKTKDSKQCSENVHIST

[4] = tested on: Ras processing; assay: Ras processing assay in EJ3 / Ras transformed 3T3 cells (FIG. 16A); format: cell-based
Protocol: EJ3 cells were treated with peptidomimetics or vehicle for 20-24 h. Cells were lysed in lysis buffer (10 mM Na2 HPO4, pH 7.25, 150 mM NaCl, 0.1% sodium dodecyl sulfate, 1% Triton X-100, 12 mM sodium deoxycholate, 1 mM NaF, 0.2% NaN3, 2 mM PMSF, 25 μg/ml leupeptin) and the lysates were cleared by spinning at 13,000 rpm for 15 minutes. Ras protein was immunoprecipitated overnight at 4° C. with 50 μg of anti-Ras antibody (Y13-259; hybridoma from ATCC, Rockville, Md.) along with 30 μl Protein A-agarose goat anti-rat IgG complex (oncogene Science, Uniondale, N.Y.). Immunoprecipitates were washed 4 times with lysis buffer and the bound proteins were released by heating for 5 minutes in 40 μl SDS-PAGE sample buffer and subsequently electrophoresed on a 12.5% SDS-PAGE.

[5] = molecular target: T3, FTase (Homo sapiens, UniProt P49356); assay: Peptidomimetics farnesylation assay (silica gel TLC); format: biochemical
T3 construct: FTase and GGTase I activities from 60,000×g supernatants of human Burkitt lymphoma (Daudi) cells; endogenous in cells; host or cells: human Burkitt lymphoma (Daudi) cells, 60,000xg supernatant (partially purified)
T3 sequence (P49356 whole entry): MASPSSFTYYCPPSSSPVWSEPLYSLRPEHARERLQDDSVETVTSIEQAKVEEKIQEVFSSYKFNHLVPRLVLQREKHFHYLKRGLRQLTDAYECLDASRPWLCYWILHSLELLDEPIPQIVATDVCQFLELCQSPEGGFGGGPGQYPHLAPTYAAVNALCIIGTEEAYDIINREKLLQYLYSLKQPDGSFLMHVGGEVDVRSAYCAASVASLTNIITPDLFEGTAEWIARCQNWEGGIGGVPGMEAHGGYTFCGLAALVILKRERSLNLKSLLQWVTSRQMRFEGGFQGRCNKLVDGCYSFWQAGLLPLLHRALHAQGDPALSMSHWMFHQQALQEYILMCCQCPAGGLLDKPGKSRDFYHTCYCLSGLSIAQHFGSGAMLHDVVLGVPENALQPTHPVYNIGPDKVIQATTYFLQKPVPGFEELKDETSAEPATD
Protocol: The ability of human Burkitt lymphoma (Daudi) FTase to farnesylate peptides and peptidomimetics was determined as described previously (34, 35). Briefly, 25 μl of reaction mixture containing 50 μg of 60,000×g supernatants and 20 μM peptidomimetic in 50 mM Tris, pH 7.5, 50 μM ZnCl2, 20 mM KCl, 3 mM MgCl2, 1 mM DTT and 0.2% octylβ-D-glucoside was incubated for 30 minutes at 37° C., then spotted onto silica gel G TLC sheets (20×20 cm, Brinkmann Instruments), and developed with n-propanol/5 N ammonium hydroxide/water (6:1:1). The dried sheets were sprayed with En^3 Hance (DuPont NEN) and exposed to x-ray film for detection of [^3 H] farnesylated products.

[6] = molecular target: T3, FTase; assay: FTase activity assay: transfer of [3H]farnesyl from FPP to recombinant H-Ras-CVLS, Daudi 60,000xg supernatant; format: biochemical
Protocol: FTase and GGTase I activities from 60,000×g supernatants of human Burkitt lymphoma (Daudi) cells (ATCC, Rockville, Md., USA) were assayed as described previously for FTase (41). Briefly, 100 μg of the supernatant was incubated in 50 mM Tris, pH 7.5, 50 μM ZnCl2, 20 mM KCl and 1 mM dithiothreitol (DTT).
Human Burkitt lymphoma (Daudi) cells (ATCC, Rockville, Md.) were grown in suspension in RPMI 1640 medium containing 10% fetal bovine serum (FBS) and 1% Pen-Strep in a humidified 10% CO2 incubator at 37° C. The cells were harvested and sonicated in 50 mM Tris, pH 7.5, 1 mM EDTA, 1 mM EGTA, 25 μg/ml leupeptin, 1 mM phenylmethylsulfonyl fluoride. Homogenates were then spun at 12,000×g and the resulting supernatant further spun at 60,000×g. The supernatant was assayed for both FTase and GGTase I. Briefly, 100 μg of the supernatants was incubated in 50 mM Tris, pH 7.5, 50 μM ZnCl2, 20 mM KCl, 3 mM MgCl2 and 1 mM DTT. […] FPP (625 nM; 16.3 Ci/mmol). For GGTase assays, the reaction was also incubated for 30 minutes at 37° C. but with recombinant H-Ras-CVLL (5 μM) and [^3 H] GGPP (525 nM; 19.0 Ci/mmol). The reaction was stopped and passed through glass fiber filters to separate free and incorporated label. For inhibition studies, the peptidomimetics were premixed with FTase or GGTase I prior to adding the remainder of the reaction mixture. […] Recombinant H-Ras-CVLL was prepared from bacteria (32).
FTase and GGTase I activities from 60,000×g supernatants of human Burkitt lymphoma (Daudi) cells (ATCC, Rockville, Md.) were assayed exactly as described previously for FTase (41).

[7] = tested on: Rap1A processing; assay: Rap1A processing assay in EJ3 / Ras transformed 3T3 cells (FIG. 16B); format: cell-based
Protocol: For Rap1A processing assays, 50 μg of cell lysates were electrophoresed as described above for Ras processing and transferred to nitrocellulose. These membranes were then blocked with 5% milk in Tris-buffered saline, pH 8.0, containing 0.5% Tween-20 and probed with anti-Rap1A (1 μg/ml in 5% milk/TBS-T; Santa Cruz Biotechnology, Santa Cruz, Calif.). Antibody reactions were visualized using peroxidase-conjugated goat anti-rabbit IgG (Oncogene) and ECL chemiluminescence as described above.

| Compound | IC50 [1] [nM] | IC50 [2] [nM] | IC50 ([3]; Table 4, read-out: GGTase-I IC50) [nM] | IC50 ([3]; read-out: GGTase I IC50) [nM] | lowest concentration that inhibited Ras processing [4] [µM] | inhibition of Ras processing ([4]; 100 μM) | farnesylation by FTase ([5]; FIG. 15, listed as 4) | Substrate ([5]; Table 4, substrate for farnesylation, TLC) | selectivity for FTase over GGTase I [6] [fold] | Selectivity ([6]; Table 4, FTase over GGTase I) | IC50 ([6]; Table 4, read-out: FTase IC50) [nM] | inhibition of Rap1A processing [7] |
| --- | --- | --- | --- | --- | --- | --- | --- | --- | --- | --- | --- | --- |
| Cys-Ile-Phe-Met (CIFM; printed: Cys-Ile-Phe-Met) | 30 |  |  |  |  |  |  |  |  |  |  |  |
| N[C@@H](CS)CNc1ccc(-c2cccc(C(=O)O)c2)cc1 [FTI-265, 4-N-[2(R)-amino-3-mercaptopropyl]amino-3'-carboxybiphenyl] |  | 50 | 100000 | 100000 | 50 | potently inhibit Ras processing | prevented farnesylation; also recorded: not substrates for farnesylation | no | 877 | 877 | 114 | not able to inhibit Rap1A geranylgeranylation |

Source: patent publication US5965539A, “Inhibitors of prenyl transferases” (Univeristy of Pittsburgh, priority 1996, dated 1999)
